Reference: patent publication US20230043863A1, “HETEROAROMATIC DERIVATIVES FOR USE AS REGULATOR, PREPARATION METHOD THEREFOR AND USE THEREOF” (JIANGSU HANSOH PHARMACEUTICAL GROUP CO., LTD., priority 2018, published 2023)
Read-outs that look alike come from different tables or passages of the source.

Tests used:
[1] = system: JAK-STAT signal pathway of U266 cells; assay: Inhibition of cellular JAK-STAT signal pathway (STAT3 phosphorylation) in U266 cells; assay type: cell-based, human; conditions: Homo sapiens, U-266, INF-a 1000 U/mL stimulation
Method: The objective of the test is to test the inhibitory activity of the compound on the cellular JAK-STAT signaling pathway.
U266 cell line was used in this experiment, by activating the JAK-STAT signaling pathway through INF-a stimulation, the inhibitory activity of the compound on its downstream STAT3 phosphorylation was detected, and the half inhibitory concentration IC50 of the compound on the JAK-STAT signaling pathway activity was obtained.
3-12 μL of U266 cell line was spread into the 384-well detection plate, and the number of cells in each well was 100-300 K, followed by addition of 2 μL of the compound solution serially diluted. The plate was incubated for 2 hours with shaking at 350 rpm at room temperature. After 2 hours, 2 μL of INF-a with a final concentration of 1000 U/mL was added. The plate was shaken at room temperature for 15 minutes. 2-5 μL (5×) LANCE Ultra Lysis Buffer 2 solution was added and the plate was shaken at room temperature for 2 hours. After 2 hours, 5 μL of LANCE Ultra Eu-labeled Anti-STAT3 Antibody (PerkinElmer) with a final concentration of 0.5 nM and LANCE Ultra ULight-labeled Anti-STAT3 Antibody (PerkinElmer) with a final concentration of 5 nM were added, and the plate was incubated overnight at room temperature. The fluorescence signal value at 665 nm of each well was measured with the microplate reader, and the inhibition rate was calculated from the fluorescence signal value. According to the inhibition rate of different concentrations, the IC50 of the compound was obtained by curve fitting.
The percentage inhibition data of the wells treated with the compound was calculated with the positive control wells (DMSO control wells) and negative control wells (no kinase added) on the plate {% inhibition rate=100-[(test compound value-negative control value)]/(Positive control value-negative control value)×100}. IC50 value was calculated by using GraphPad prism to fit the data of different concentrations and corresponding percentage inhibition rates to a 4-parameter non-linear logic formula.

[2] = Balb/C mouse pharmacokinetics (plasma, colon, ileum); assay type: in vivo; conditions: male, po, Balb/C mice, p.o. 5 mg/kg; for Cmax: read-out: Blood concentration Cmax; for AUC(0-t): read-out: Curve area AUC0-t; for MRT: read-out: Mean detention time MRT; for Tmax: read-out: Time to peak tmax; for AUC(0-inf): read-out: Curve area AUC0-∞; for half-life: read-out: Half life period t1/2 (converted)
Description: Balb/C mouse was used as the test animal, the pharmacokinetic behavior in mice (plasma and colon, ileum tissue) was studied after oral administering the embodiment 1, embodiment 60, embodiment 169, embodiment 170, embodiment 171, embodiment 179, embodiment 191, embodiment 213, embodiment 214, embodiment 237, embodiment 238, embodiment 244, embodiment 246, embodiment 247, embodiment 257, embodiment 260, embodiment 262, embodiment 263, embodiment 267, embodiment 277, embodiment 278, embodiment 279, embodiment 288, embodiment 295, embodiment 299 and embodiment 301 at a dose of 5 mg/kg. After analyzing the drug concentration in the colon and ileum, the ratio of the drug concentration in the colon to that in ileum, and the ratio of the drug concentration in the colon to that in the plasma, the compounds with excellent PK were selected for further research.
12 Balb/C mice in each group, male, Shanghai Jiesjie Experimental Animal Co., Ltd., animal production license number (SCXK (Shanghai) 2013-0006 N0.311620400001794).
12 Balb/C mice in each group, male; p.o. after one night fast; the dose was 5 mg/kg; the administration volume was 10 mL/kg.
At 0, 0.5, 1, 2, 3, 5 and 7 hours before and after the administration, the mice were executed by CO2 and 0.2 mL of blood was collected from the heart, placed in an EDTA-K2 test tube, and centrifuged at 6000 rpm at 4° C. for 6 minutes to separate the plasma, which was then stored at −80° C. The ileum was taken close to the cecum end with a length of about 4-5 cm, and the colon was also taken close to the cecum end with a length of about 2-3 cm, weighed and placed in a 2 mL centrifuge tube, then stored at −80° C.
1) 40 uL of plasma sample was precipitated by adding 160 uL of acetonitrile, mixed and centrifuged at 3500×g for 5-20 minutes.
2) 30 μL of plasma and intestinal homogenate sample were precipitated by adding 90 of acetonitrile containing internal standard (100 ng/mL), mixed and centrifuged at 13000 rpm for 8 minutes.
3) 70 μL of the supernatant solution after treatment was collected and 70 μL of water was added thereto, vortexed and mixed for 10 minutes, and then 20 μL was collected to analyze the concentration of the test compound by LC/MS/MS. LC/MS/MS analysis instrument: AB Sciex API 4000 Qtrap.
Liquid phase conditions: Shimadzu LC-20AD Pump
Chromatographic column: Agilent ZORBAX XDB-C18 (50×2.1 mm, 3.5 μm) mobile phase: 0.1% formic acid aqueous solution as A solution, acetonitrile as B solution
Elution time: 0-4.0 minutes, the eluent is as follows:
The main pharmacokinetic parameters were calculated with WinNonlin 6.1, and the results of mouse pharmacokinetic experiments are shown in Table 3:
NA refers to none detected or not being tested (the detection limit of blood concentration was 1 ng/mL, when the Cmax in the blood test is NA, then NA in the blood test index refers to none detected; when the Cmax in the blood test is higher than the quantitative limit 1 ng/mL, then NA in the blood test index refers to not being tested; NA in the tissues (colon and ileum) refers to not being tested).

[3] = biological target: JAK1 (Homo sapiens, UniProt P23458); assay: JAK kinase activity inhibition, TR-FRET (JAK1); assay type: biochemical; conditions: TR-FRET kinase assay
Sequence of JAK1 (P23458 whole entry): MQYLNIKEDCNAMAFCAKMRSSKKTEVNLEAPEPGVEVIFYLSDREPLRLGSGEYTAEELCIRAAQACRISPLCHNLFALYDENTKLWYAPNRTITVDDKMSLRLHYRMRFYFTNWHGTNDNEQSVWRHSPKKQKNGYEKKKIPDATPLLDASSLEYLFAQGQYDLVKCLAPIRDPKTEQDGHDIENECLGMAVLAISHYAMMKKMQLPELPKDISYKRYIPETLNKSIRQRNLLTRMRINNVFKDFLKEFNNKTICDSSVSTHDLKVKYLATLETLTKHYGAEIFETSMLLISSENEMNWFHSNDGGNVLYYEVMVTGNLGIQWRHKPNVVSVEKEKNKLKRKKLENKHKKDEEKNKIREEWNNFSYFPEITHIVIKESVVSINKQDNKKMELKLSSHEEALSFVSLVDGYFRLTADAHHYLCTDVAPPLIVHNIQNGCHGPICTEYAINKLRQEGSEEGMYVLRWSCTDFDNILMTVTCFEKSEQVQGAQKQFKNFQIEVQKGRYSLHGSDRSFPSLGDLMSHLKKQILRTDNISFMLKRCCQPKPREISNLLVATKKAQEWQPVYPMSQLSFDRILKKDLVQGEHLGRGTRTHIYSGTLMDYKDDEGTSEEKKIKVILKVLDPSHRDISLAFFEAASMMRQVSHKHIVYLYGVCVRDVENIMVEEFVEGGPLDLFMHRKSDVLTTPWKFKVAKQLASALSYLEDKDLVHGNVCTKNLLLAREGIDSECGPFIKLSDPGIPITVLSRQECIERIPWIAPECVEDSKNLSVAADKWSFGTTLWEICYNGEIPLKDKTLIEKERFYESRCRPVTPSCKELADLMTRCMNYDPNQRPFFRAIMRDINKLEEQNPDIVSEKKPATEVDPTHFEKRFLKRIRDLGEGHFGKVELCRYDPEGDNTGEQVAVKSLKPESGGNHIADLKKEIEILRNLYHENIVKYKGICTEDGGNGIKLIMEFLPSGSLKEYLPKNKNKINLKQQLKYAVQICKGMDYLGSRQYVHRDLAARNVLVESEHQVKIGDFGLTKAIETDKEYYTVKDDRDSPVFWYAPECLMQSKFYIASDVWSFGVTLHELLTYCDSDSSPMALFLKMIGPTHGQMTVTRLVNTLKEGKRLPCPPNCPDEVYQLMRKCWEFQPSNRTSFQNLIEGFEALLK
How it was run: (§1)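 Recombinant kinase at 0.1-20 nM, peptide substrate, ATP; room temperature, 0.5-5 h; EDTA stop, labeled-antibody TR-FRET readout; IC50 by curve fit.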

[4] = biological target: TYK2 (Homo sapiens, UniProt P29597); assay: JAK kinase activity inhibition, TR-FRET (TYK2); assay type: biochemical; conditions: TR-FRET kinase assay
Sequence of TYK2 (P29597 whole entry): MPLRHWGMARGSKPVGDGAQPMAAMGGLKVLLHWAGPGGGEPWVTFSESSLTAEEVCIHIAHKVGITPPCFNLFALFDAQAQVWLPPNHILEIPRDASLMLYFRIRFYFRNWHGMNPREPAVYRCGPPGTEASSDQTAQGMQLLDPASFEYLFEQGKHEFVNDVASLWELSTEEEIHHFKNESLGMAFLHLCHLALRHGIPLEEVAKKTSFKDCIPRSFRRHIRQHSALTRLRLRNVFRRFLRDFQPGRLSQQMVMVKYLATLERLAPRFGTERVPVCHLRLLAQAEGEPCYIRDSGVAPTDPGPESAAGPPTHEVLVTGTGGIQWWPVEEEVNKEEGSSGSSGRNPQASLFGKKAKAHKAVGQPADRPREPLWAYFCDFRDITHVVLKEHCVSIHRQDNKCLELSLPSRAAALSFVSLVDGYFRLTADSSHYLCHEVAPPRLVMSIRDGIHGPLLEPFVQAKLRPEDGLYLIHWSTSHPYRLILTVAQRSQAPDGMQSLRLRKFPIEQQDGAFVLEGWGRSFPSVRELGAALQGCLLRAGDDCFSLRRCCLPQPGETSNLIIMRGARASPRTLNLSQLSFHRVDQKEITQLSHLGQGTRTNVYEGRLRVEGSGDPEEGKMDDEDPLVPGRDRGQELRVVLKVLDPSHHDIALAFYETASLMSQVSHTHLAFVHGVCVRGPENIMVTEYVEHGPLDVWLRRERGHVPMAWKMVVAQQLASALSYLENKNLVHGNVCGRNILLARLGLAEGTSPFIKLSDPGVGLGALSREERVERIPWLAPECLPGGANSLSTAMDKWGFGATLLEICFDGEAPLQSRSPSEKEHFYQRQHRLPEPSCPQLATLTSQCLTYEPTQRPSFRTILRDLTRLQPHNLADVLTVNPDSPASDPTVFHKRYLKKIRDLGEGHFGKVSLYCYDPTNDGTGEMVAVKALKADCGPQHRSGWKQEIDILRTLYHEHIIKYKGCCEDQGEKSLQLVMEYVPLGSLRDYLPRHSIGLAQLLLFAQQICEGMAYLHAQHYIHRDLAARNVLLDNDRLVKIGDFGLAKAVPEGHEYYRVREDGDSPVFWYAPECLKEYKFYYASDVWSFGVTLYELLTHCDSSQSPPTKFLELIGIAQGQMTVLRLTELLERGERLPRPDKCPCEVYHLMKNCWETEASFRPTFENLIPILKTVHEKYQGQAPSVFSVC
How it was run: as §1

Row | SMILES | IC50 [1] | Cmax ([2]; plasma, blood) | AUC(0-t) ([2]; plasma, blood) | MRT ([2]; plasma, blood) | Tmax ([2]; plasma, blood) | Cmax ([2]; colon) | AUC(0-t) ([2]; colon) | MRT ([2]; colon) | Tmax ([2]; colon) | Cmax ([2]; ileum) | AUC(0-t) ([2]; ileum) | MRT ([2]; ileum) | Tmax ([2]; ileum) | IC50 [3] | IC50 [4] | AUC(0-inf) ([2]; ileum) | half-life ([2]; ileum) | other results
1 | Cc1cc(Nc2nc(N[C@@H]3C[C@H]4CC[C@@H](C3)N4CCC#N)nc3cc(-c4cccnc4)ccc23)n[nH]1 [Embodiment 179, 3-((3-exo)-3-((4-((5-methyl-1H-pyrazol-3-yl)amino)-7-(pyridin-3-yl)quinazolin-2-yl)amino)-8-azabicyclo[3.2.1]oct-8-yl)propionitrile] | 9.84 nM | 3.8 ng/mL | 6.76 ng·h/mL | 1.66 h | 0.5 h | 485 ng/mL | 2040 ng·h/mL | 2.83 h | 1 h | 2330 ng/mL | 10300 ng·h/mL | 2.88 h | 3 h | 0.44 nM | 0.47 nM |  |  | AUC(0-inf) ([2]; colon): 2180 ng·h/mL; half-life ([2]; colon): 1.49 h
2 | Cc1cc(Nc2nc(N[C@@H]3C[C@H]4CC[C@@H](C3)N4CCC#N)nc3cc(N4CCOCC4)ccc23)n[nH]1 [Embodiment 191, 3-((3-exo)-3-((4-((5-methyl-1H-pyrazol-3-yl)amino)-7-morpholinoquinazolin-2-yl)amino)-8-azabicyclo[3.2.1]oct-8-yl)propionitrile] | 2.8 nM | 0.81 ng/mL |  |  | 1 h | 3350 ng/mL | 10600 ng·h/mL | 4.59 h | 5 h | 32600 ng/mL | 51500 ng·h/mL | 1.13 h | 1 h | 0.41 nM | 0.94 nM | 51700 ng·h/mL | 1.39 h | 
3 | Cc1cc(Nc2nc(N[C@@H]3C[C@H]4CC[C@@H](C3)N4C(=O)CN3CCOCC3)nc3sccc23)n[nH]1 [Embodiment 244, 1-((3-exo)-3-((4-((5-methyl-1H-pyrazol-3-yl)amino)thieno[2,3-d]pyrimidin-2-yl)amino)-8-azabicyclo[3.2.1]oct-8-yl)-2-morpholinoethane-1-one] | 3.79 nM | 12 ng/mL | 18 ng·h/mL | 2.12 h | 3 h | 1190 ng/mL | 4900 ng·h/mL | 4.38 h | 7 h | 9010 ng/mL | 22600 ng·h/mL | 1.83 h | 1 h | 1.15 nM | 2.45 nM | 22600 ng·h/mL | 0.66 h | 
4 | Cc1cc(Nc2nc(N[C@@H]3C[C@H]4CCC[C@@H](C3)N4C(=O)c3ccncc3)nc3sccc23)n[nH]1 [Embodiment 262, ((3-exo)-3-((4-((5-methyl-1H-pyrazol-3-yl)amino)thieno[2,3-d]pyrimidin-2-yl)amino)-9-azabicyclo[3.3.1]non-9-yl)(pyridin-4-yl)methanone] | 9.47 nM | 8.01 ng/mL | 13.4 ng·h/mL | 1.77 h | 2 h | 1240 ng/mL | 3940 ng·h/mL | 3.72 h | 3 h | 22300 ng/mL | 40200 ng·h/mL | 1.34 h | 1 h | 0.07 nM | 1.35 nM | 40300 ng·h/mL | 0.49 h | AUC(0-inf) ([2]; colon): 4520 ng·h/mL; half-life ([2]; colon): 1.69 h
5 | Cc1cc(Nc2nc(N[C@@H]3C[C@H]4CCC[C@@H](C3)N4C(=O)c3nccn3C)nc3sccc23)n[nH]1 [Embodiment 263, (1-methyl-1H-imidazol-2-yl) ((3-exo)-3-((4-((5-methyl-1H-pyrazol-3-yl)amino)thieno[2,3-d]pyrimidin-2-yl)amino)-9-azabicyclo[3.3.1]non-9-yl)methanone] | 4.07 nM | 12.7 ng/mL | 57.6 ng·h/mL | 3.51 h | 3 h | 5540 ng/mL | 15500 ng·h/mL | 3.58 h | 3 h | 5490 ng/mL | 9910 ng·h/mL | 1.36 h | 1 h | 0.11 nM | 0.22 nM | 9940 ng·h/mL | 0.82 h | 
6 | Cc1cc(Nc2nc(N[C@@H]3C[C@H]4CCC[C@@H](C3)N4S(=O)(=O)c3ccccn3)nc3sccc23)n[nH]1 [Embodiment 267] | 18 nM |  |  |  |  | 1270 ng/mL | 5610 ng·h/mL | 4.4 h | 5 h | 12200 ng/mL | 20700 ng·h/mL | 1.24 h | 1 h | 0.13 nM | 0.39 nM | 20700 ng·h/mL | 0.53 h | 
7 | Cc1cc(Nc2nc(N[C@@H]3C[C@H]4CCC[C@@H](C3)N4C(=O)CN3CCOCC3)nc3ccsc23)n[nH]1 [Embodiment 288, 1-((3-exo)-3-((4-((5-methyl-1H-pyrazol-3-yl)amino)thieno[3,2-d]pyrimidin-2-yl)amino)-9-azabicyclo[3.3.1]non-9-yl)-2-morpholinoethane-1-one] | 4.03 nM | 11 ng/mL | 21.5 ng·h/mL | 2.5 h | 2 h | 676 ng/mL | 2900 ng·h/mL | 3.91 h | 3 h | 7380 ng/mL | 17600 ng·h/mL | 2.89 h | 3 h | 0.27 nM | 8.09 nM |  |  | AUC(0-inf) ([2]; plasma, blood): 24.5 ng·h/mL; half-life ([2]; plasma, blood): 2.6 h
